From article PMC3626250, “Effects of Borneol on Pharmacokinetics and Tissue Distribution of Notoginsenoside R1 and Ginsenosides Rg1 and Re in Panax notoginseng in Rabbits” (Journal of Analytical Methods in Chemistry, 2013)

Experiments:
Caco-2 cell monolayers = test: TEER values of the Caco-2 cell monolayers; assay type: cell-based; conditions: 200 μM Borneol with 500 μM NGR1, GRg1 and GRe, Caco-2 monolayers
Protocol: In transport studies, vinblastine-selected Caco-2 cells were seeded on polycarbonate filter of transwells for 18–21 days before starting transport study, and the monolayers with the transepithelial electrical resistance (TEER) values greater than 300 Ωcm^2 were used. Caco-2 monolayers were rinsed twice with Hanks' balanced salt solution (HBSS) and preincubated in HBSS at 37°C for 30 min before starting experiments. To start the experiments, 500 μM of NGR1, GRg1, and GRe in final concentrations were added to the donor side with or without 200 μM Borneol and then incubated at 37°C. An aliquot of 0.1 mL samples were withdrawn from receiver chambers at 0, 30, 60, 90, and 120 min after the loading. After each sampling, 0.1 mL of HBSS was added to the receiver chamber to maintain a constant volume. All the experiments were performed five times in duplicate. […] During the above transport studies, the TEER values were also monitored before and at the end of each experiment. Apparent permeability coefficients (P app) were then calculated according to the following equation: (1) Papp=(dC/dt×V)/(A×C0), where dC/dt is the rate of the test compound appearing in the receiver chamber, V is the volume of the solution in the receiver chamber, A is the cell monolayer surface area, and C 0 is the initial concentration of the test compound added in the donor chamber. […]

Caco-2 cells = test: MTT cytotoxicity assay toward Caco-2 cells; assay type: cell-based; conditions: chosen for transport study
Protocol: The Caco-2 cells were cultured in Dulbecco's modified Eagle's medium (DMEM) supplemented with 20% foetal bovine serum, 1% nonessential amino acids and penicillin-streptomycin, at 37°C in an atmosphere with a relative humidity of 95% and a CO2 flow of 5%. Medium was replaced every 2-3 days. When the cell monolayer reached 80% confluence, the cells were detached with a solution of 0.02% EDTA and 0.25% trypsin. The vinblastine-selected Caco-2 cells were cultivated in the presence of 10 nM vinblastine to induce P-glycoprotein (P-gp) expression. The culture medium was changed to a fresh medium without vinblastine 24 h before experiments, and the cells were used between passages 25 and 46. Prior to the transport study, cytotoxicity of NGR1, GRg1, GRe, and Borneol toward Caco-2 cells was determined using MTT assays. Noncytotoxic concentrations of 500 μM NGR1, GRg1, GRe, and 200 μM Borneol (dissolved in DMSO) were chosen for transport study.

CC1(C)C2CCC1(C)C(O)C2 (centres unmarked) [Borneol]
TEER values of the monolayers decreased reversibly to (Caco-2 cell monolayers): about 23% | Noncytotoxic concentration (Caco-2 cells): 200 µM
